# Tests used:
# [1] = system: epithelial corneal cells (SIRC); test: In vitro protection of UV312 irradiated epithelial corneal cells (SIRC); assay type: cell-based; details: for Lipid-soluble fluorescent substances, U/mg protein / Lipid-soluble fluorescent substances, U/well: UV312 80 mJ/cm^2, 10^−5 pirenoxine, 17 hours at 37° C.
# Procedure: The protective effect of pirenoxine on epithelial comeal cells (SIRC) irradiated for 36″ using UV312 light (80 mJ/cm^2), according to the following procedure: (a) the comeal cells were plated in 35 mm diameter wells; (b) at 80% confluency the cells were contacted with a medium at low (0,2%) serum content to inhibit the proliferation thereof during the experiment (c) the cells were irradiated with UV light in presence and in absence of 10^−5 pirenoxine, incubated at 37° C. for 17 hours and homogenized in 10 mM f) phosphate buffer, pH 7,4; (d) the lipid-soluble fluorescent substances and the proteins contained in suitable homogenate aliquots were determined.
# [2] = reconstituted aqueous solution, ambient temperature; cited from earlier work
# [3] = system: epithelium and endothelium homogenates of rabbit corneas; test: In vitro Fe(III)-ascorbic acid induced lipid peroxidation in epithelium and endothelium homogenates of rabbit corneas; assay type: biochemical; details: homogenate + 10 μM FeCl3 and ascorbic acid, 27° C., 30 minutes, 10^−5 M pirenoxine; mean ± SEM
# From the text: The experimental procedure for the evaluation of the inhibiting action against the lipid-peroxidation exerted by pirenoxine in cornea epithelial and endothelial cells made use of Fe(III)-ascorbic acid system to induce the peroxidative phenomenon. The oxidative attack on membrane lipids was confirmed by the spectrophotometric determinations of both the conjugated dienes and fluorescent lipid-soluble substances which, as known, are generated by the oxidative degradation of lipid molecules.
# Used experimental procedure included the following steps: a) abstraction of the cornea from the eye of male pigmented rabbits suitably selected and prepared for the study; b) incubation of the latter in 100 μM phosphate buffer, pH 7,5, in the presence of 1000 U collagenase and 5 μM CaCl2 for 20 hours at 37° C.; c) centrifugation at 35000 rpm at 0° C. for 10 minutes and washings of the sediment with phosphate buffer; d) homogenization of the cellular sediment in 1 ml of buffer, pH 7,4 (10% w/v); e) incubation of a suitable homogenate aliquot with 10 μM FeCl3 and ascorbic acid in phosphate buffer, pH 7,4, at 27° C. for 30 minutes in presence and in absence of 10^−5 M pirenoxine; f) extraction of the lipid-soluble substances using chloroform/methanol mixture (2:1 v/v). […]
# [4] = system: rabbit corneas incubated with f-MLP-stimulated autologous macrophages; test: In vitro protection of whole corneas against ROS from f-MLP-stimulated autologous rabbit macrophages; assay type: cell-based; details: 10^−5 M pirenoxine, 10^−7 M f-MLP stimulated macrophages, two hours at 37° C.
# Procedure: In order to evaluate the inhibition exerted by pirenoxine against the oxidizing activity of macrophage produced ROS at level of the cornea, the following procedure was carried out: (a) broncho-alveolar washing of the rabbit to obtain the macrophages; (b) abstraction of the cornea from the rabbit eye; (c) incubation of the corneas with 10^−7 M f-MLP stimulated or not stimulated macrophages (800000 cells/well) for two hours at 37° C., 5 % CO2 in presence and in absence of 10^−5 M pirenoxine; (d) separation and homogenization of the epithelial and endothelial corneal cells and subsequent determination of fluorescence as described in b, c, d and f steps of the above methodology.
# [5] = system: rabbit corneas; test: In vivo effect on rabbit corneas after intrastromal injection of UV irradiated ferritin; details: two drops of 0,005% pirenoxine every hour 8 times a day over 4 days, corneas at 5th day
# Procedure: (a) rabbits were anaesthetized by low pentobarbital doses (20 mg/kg); (b) 25 μl of 50 μM ferritin in 0,15 M NaCl were injected in the stroma of the cornea by a 0,33×13 mm/29G insulin syringe whereas the controls were treated with 25 μl physiological solution; (c) in the eyes every hour two drops (1 drop=30 μl) of 0,005% pirenoxine in 0,145 M NaCl 8 times a day over 4 days were instilled, whereas the controls were treated only with the solvent, in the same amount and frequency; (d) at the 5th day the animals were sacrificed using a pentobarbital overdose (100 mg/kg); (e) the corneas were abstracted and the tissue cells separated and collected according to the procedure described in the ex vivo experiment; (f) the conjugated dienes and fluorescent soluble lipid contained in suitable homogenate aliquots were determined.
# In vivo conjugated diene and lipid soluble fluorescence substance formation in corneas 5 days after the rabbit eyes were submitted to intrastromal injection of UV-irradiated ferritin and topical instillation of pirenoxine solution (2 drops every hour for 8 hr over 4 days)
smiles,measurement,setting,value
"O=C(O)c1cc(O)c2c3nc4ccccc4oc-3cc(=O)c2n1 [pirenoxine, 1-hydroxy-5-oxo-5H-pyrido-[3,2a]-phenoxazin-3-carboxylic acid]","Lipid-soluble fluorescent substances, U/mg protein",[1]; Cells 14/01,2.76 U/mg protein
same,"Lipid-soluble fluorescent substances, U/well",[1]; Cells 14/01,0.92 U/well
same,"Lipid-soluble fluorescent substances, U/mg protein",[1]; Cells 17/12,9.08 U/mg protein
same,"Lipid-soluble fluorescent substances, U/well",[1]; Cells 17/12,3.66 U/well
same,"Lipid-soluble fluorescent substances, U/mg protein",[1]; Cells 20/12,7.35 U/mg protein
same,"Lipid-soluble fluorescent substances, U/well",[1]; Cells 20/12,1.8 U/well
same,Lipid-soluble fluorescent substances relative to irradiated cells not protected by pirenoxine,"[1]; UV312 irradiation, 10^−5 pirenoxine",notably lower (about two and half times)
same,Storage time of reconstituted solution without degradation,[2],about two weeks without degradation
same,Conjugated dienes,[3],2.77 ± 0.07 nmol/hemicornea
same,Fluorescence (fluorescent lipid-soluble substances),[3],5.22 ± 0.13 U/hemicornea
same,Induced fluorescence of lipid soluble substances (FIG. 1),[4],remarkably lower than the controls and are comparable to those of normal corneas (basal values)
same,Conjugated diene,[5],1.7 Nmoles/hemicornea
same,Fluorescence,[5],4.4 Unit/hemicornea

# Source: patent US6610686B1, “Use of pirenoxine for the protection of corneal tissues in photokeractomy” (Ausimont S.p.A., priority 1999, dated 2003)
